Data on 5 compounds can be found in patent US9474790B2, “Stable, protracted GLP-1/glucagon receptor co-agonists for medical use” (Novo Nordisk A/S, priority 2013, dated 2016).

Numbered stars: 1 amine (or outer) side, 2 acyl side, 3 side chain; on linkers, the order of the positions; unused ones are H or OH. Bridge positions count the residues as written; N and C are the ends. Square brackets hold non-standard residues; d marks the D form. Side chains are listed from the residue outwards. Peptide text beside a SMILES is read from it. I, II: the chains in the order shown. * marks the point of attachment. C18 diacid = O=C(O)CCCCCCCCCCCCCCCCC(=O)*; γGlu = O=C(O)[C@H](CCC(=O)[*:2])N[*:1]; AEEA = NCCOCCOCC(=O)O; Aib = CC(C)(N)C(=O)O

The experiment addresses T1, human GLP-1 receptor (Homo sapiens, UniProt P43220).
T1 construct: expressed in transfected cells; host or cells: BHK cells (parent BHKTS13), clone FCW467-12A/KZ10-1, with CRE luciferase
Briefly: GLP-1 receptor binding, 125I-GLP-1 displacement SPA on isolated membranes. To be noted: displacement of 125I-GLP-1 from membranes; read-out: IC50 GLP-1R. The method, boiled down:
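Test derivatives, serially diluted, competed with 125I-GLP-1(7-36)NH2 for the human GLP-1 receptor on BHK membranes, read by WGA-bead scintillation proximity after 2 h at 30°C, pH 7.4 HEPES/EGTA/MgCl2 buffer. Final serum albumin was either ≤0.001% or 2.0%; IC50 from non-linear fit.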
For orientation: In a radioligand displacement assay an active substance lowers the binding of a labelled ligand.

T1 sequence (P43220 24-463): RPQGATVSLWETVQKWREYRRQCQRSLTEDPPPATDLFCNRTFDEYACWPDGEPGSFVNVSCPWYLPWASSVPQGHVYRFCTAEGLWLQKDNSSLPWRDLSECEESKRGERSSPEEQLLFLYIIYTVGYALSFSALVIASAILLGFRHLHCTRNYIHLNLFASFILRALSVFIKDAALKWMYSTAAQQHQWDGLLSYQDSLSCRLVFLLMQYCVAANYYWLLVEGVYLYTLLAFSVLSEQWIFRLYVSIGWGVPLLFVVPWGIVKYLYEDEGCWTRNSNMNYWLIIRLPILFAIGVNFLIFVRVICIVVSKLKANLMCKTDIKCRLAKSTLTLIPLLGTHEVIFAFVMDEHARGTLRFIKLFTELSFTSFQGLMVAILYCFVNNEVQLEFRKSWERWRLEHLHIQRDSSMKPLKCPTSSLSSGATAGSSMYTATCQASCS

As usually defined, the IC50 is the point on the concentration scale where inhibition reaches its midpoint. `CC(C)C[C@H](NC(=O)[C@H](Cc1ccc(O)cc1)NC(=O)[C@H](CCCCN)NC(=O)[C@H](CO)NC(=O)[C@H](CC(C)C)NC(=O)[C@H](CC(=O)O)NC(=O)[C@H](CO)NC(=O)[C@@H](NC(=O)[C@H](Cc1ccccc1)NC(=O)[C@@H](NC(=O)CNC(=O)[C@H](CCC(N)=O)NC(=O)C(C)(C)NC(=O)[C@@H](N)Cc1c[nH]cn1)[C@@H](C)O)[C@@H](C)O)C(=O)N[C@@H](CCC(=O)O)C(=O)N[C@@H](CO)C(=O)N[C@@H](CCCNC(=N)N)C(=O)N[C@@H](CCCNC(=N)N)C(=O)N[C@@H](C)C(=O)N[C@@H](CCCNC(=N)N)C(=O)N[C@@H](CCC(=O)O)C(=O)N[C@@H](Cc1ccccc1)C(=O)N[C@H](C(=O)N[C@@H](CCC(N)=O)C(=O)N[C@@H](Cc1c[nH]c2ccccc12)C(=O)N[C@@H](CC(C)C)C(=O)N[C@@H](CC(C)C)C(=O)N[C@@H](CCCCNC(=O)CC[C@H](NC(=O)COCCOCCNC(=O)COCCOCCNC(=O)CC[C@H](NC(=O)CC[C@H](NC(=O)CCCCCCCCCCCCCCCCC(=O)O)C(=O)O)C(=O)O)C(=O)O)C(=O)N[C@H](C(N)=O)[C@@H](C)O)C(C)C` [Example 20, N^ε29-[(4S)-4-carboxy-4-[[2-[2-[2-[[2-[2-[2-[[(4S)-4-carboxy-4-[[(4S)-4-carboxy-4-(17-carboxyheptadecanoylamino)butanoyl]amino]butanoyl]amino]ethoxy]ethoxy]acetyl]amino]ethoxy]ethoxy]acetyl]amino]butanoyl]-[Aib2,Leu10,Glu15,Arg20,Glu21,Leu27,Lys28]-Glucagon amide] (H-H[Aib]QGTFTSDLSKYLESRRAREFVQWLLK([γGlu-AEEA-AEEA-γGlu-γGlu-C18 diacid])T-NH2; N-terminus assumed): the IC50 is 0.4 nM. Consider `CC(C)C[C@H](NC(=O)[C@H](CC(C)C)NC(=O)[C@H](Cc1c[nH]c2ccccc12)NC(=O)[C@H](CCC(N)=O)NC(=O)[C@@H](NC(=O)[C@H](Cc1ccccc1)NC(=O)[C@H](CCC(=O)O)NC(=O)[C@H](CCCNC(=N)N)NC(=O)[C@H](C)NC(=O)[C@H](CCCNC(=N)N)NC(=O)[C@H](CCCNC(=N)N)NC(=O)[C@H](CO)NC(=O)[C@H](CCC(=O)O)NC(=O)[C@H](CC(C)C)NC(=O)[C@H](Cc1ccc(O)cc1)NC(=O)[C@H](CCCCN)NC(=O)[C@H](CO)NC(=O)[C@H](CC(C)C)NC(=O)[C@H](CC(=O)O)NC(=O)[C@H](CO)NC(=O)[C@@H](NC(=O)[C@H](Cc1ccccc1)NC(=O)[C@@H](NC(=O)CNC(=O)[C@H](CCC(N)=O)NC(=O)C(C)(C)NC(=O)[C@@H](N)Cc1c[nH]cn1)[C@@H](C)O)[C@@H](C)O)C(C)C)C(=O)N[C@@H](CC(N)=O)C(=O)N[C@@H](CCCCNC(=O)CC[C@H](NC(=O)COCCOCCNC(=O)COCCOCCNC(=O)CC[C@H](NC(=O)CC[C@H](NC(=O)CCCCCCCCCCCCCCCCC(=O)O)C(=O)O)C(=O)O)C(=O)O)C(N)=O` [Example 21, N^ε29-[(4S)-4-carboxy-4-[[2-[2-[2-[[2-[2-[2-[[(4S)-4-carboxy-4-[[(4S)-4-carboxy-4-(17-carboxyheptadecanoylamino)butanoyl]amino]butanoyl]amino]ethoxy]ethoxy]acetyl]amino]ethoxy]ethoxy]acetyl]amino]butanoyl]-[Aib2,Leu10,Glu15,Arg20,Glu21,Leu27,Lys29]-Glucagon amide] (H-H[Aib]QGTFTSDLSKYLESRRAREFVQWLLNK([γGlu-AEEA-AEEA-γGlu-γGlu-C18 diacid])-NH2; N-terminus assumed), for which the IC50 is 0.3 nM.

Consider `CC(C)C[C@H](NC(=O)[C@H](Cc1ccc(O)cc1)NC(=O)[C@H](CCCCN)NC(=O)[C@H](CO)NC(=O)[C@H](CC(C)C)NC(=O)[C@H](CC(=O)O)NC(=O)[C@H](CO)NC(=O)[C@@H](NC(=O)[C@H](Cc1ccccc1)NC(=O)[C@@H](NC(=O)CNC(=O)[C@H](CCC(N)=O)NC(=O)C(C)(C)NC(=O)[C@@H](N)Cc1c[nH]cn1)[C@@H](C)O)[C@@H](C)O)C(=O)N[C@@H](CCC(=O)O)C(=O)N[C@@H](CO)C(=O)N[C@@H](CCCNC(=N)N)C(=O)N[C@@H](CCCNC(=N)N)C(=O)N[C@@H](C)C(=O)N[C@@H](CCCNC(=N)N)C(=O)N[C@@H](CCC(=O)O)C(=O)N[C@@H](Cc1ccccc1)C(=O)N[C@H](C(=O)N[C@@H](CCC(N)=O)C(=O)N[C@@H](Cc1c[nH]c2ccccc12)C(=O)N[C@@H](CC(C)C)C(=O)N[C@@H](CC(C)C)C(=O)N[C@@H](CCCCNC(=O)CC[C@H](NC(=O)CC[C@H](NC(=O)COCCOCCNC(=O)COCCOCCNC(=O)CC[C@H](NC(=O)CCCCCCCCCCCCCCCCC(=O)O)C(=O)O)C(=O)O)C(=O)O)C(=O)N[C@H](C(N)=O)[C@@H](C)O)C(C)C` [Example 23, N^ε28-[(4S)-4-carboxy-4-[[(4S)-4-carboxy-4-[[2-[2-[2-[[2-[2-[2-[[(4S)-4-carboxy-4-(17-carboxyheptadecanoylamino)butanoyl]amino]ethoxy]ethoxy]acetyl]amino]ethoxy]ethoxy]acetyl]amino]butanoyl]amino]butanoyl]-[Aib2,Leu10,Glu15,Arg20,Glu21,Leu27,Lys28]-Glucagon amide] (H-H[Aib]QGTFTSDLSKYLESRRAREFVQWLLK([γGlu-γGlu-AEEA-AEEA-γGlu-C18 diacid])T-NH2; N-terminus assumed), for which the IC50 was 0.3 nM. On to `CC(C)C[C@H](NC(=O)[C@H](Cc1ccc(O)cc1)NC(=O)[C@H](CCCCN)NC(=O)[C@H](CO)NC(=O)[C@H](CC(C)C)NC(=O)[C@H](CC(=O)O)NC(=O)[C@H](CO)NC(=O)[C@@H](NC(=O)[C@H](Cc1ccccc1)NC(=O)[C@@H](NC(=O)CNC(=O)[C@H](CCC(N)=O)NC(=O)C(C)(C)NC(=O)[C@@H](N)Cc1c[nH]cn1)[C@@H](C)O)[C@@H](C)O)C(=O)N[C@@H](CCC(=O)O)C(=O)N[C@@H](CO)C(=O)N[C@@H](CCCCN)C(=O)N[C@@H](CCCNC(=N)N)C(=O)N[C@@H](C)C(=O)N[C@@H](CCCNC(=N)N)C(=O)N[C@@H](CCC(=O)O)C(=O)N[C@@H](Cc1ccccc1)C(=O)N[C@H](C(=O)N[C@@H](CCC(N)=O)C(=O)N[C@@H](Cc1c[nH]c2ccccc12)C(=O)N[C@@H](CC(C)C)C(=O)N[C@@H](CC(C)C)C(=O)N[C@@H](CCCCNC(=O)CNC(=O)[C@H](CO)NC(=O)[C@H](CCC(=O)O)NC(=O)CNC(=O)[C@H](CO)NC(=O)CC[C@H](NC(=O)CC[C@H](NC(=O)CCCCCCCCCCCCCCCCC(=O)O)C(=O)O)C(=O)O)C(=O)N[C@H](C(N)=O)[C@@H](C)O)C(C)C` [Example 25, N^ε28-[2-[[(2S)-2-[[(2S)-4-carboxy-2-[[2-[[(2S)-2-[[(4S)-4-carboxy-4-[[(4S)-4-carboxy-4-(17-carboxyheptadecanoylamino)butanoyl]amino]butanoyl]amino]-3-hydroxypropanoyl]amino]acetyl]amino]butanoyl]amino]-3-hydroxypropanoyl]amino]acetyl]-[Aib2,Leu10,Glu15,Lys17,Arg20,Glu21,Leu27,Lys28]-Glucagon amide] (I: H-H[Aib]QGTFTSDLSKYLESKRAREFVQWLLKT-NH2 / II: {C18 diacid-γGlu-γGlu}-SGESG; amide I:28-II:C; N-terminus assumed), for which the IC50 was determined as 0.2 nM. With `CC(C)C[C@H](NC(=O)[C@H](CC(=O)O)NC(=O)[C@H](CC(C)C)NC(=O)[C@H](Cc1ccc(O)cc1)NC(=O)[C@H](CCCCN)NC(=O)[C@H](CO)NC(=O)[C@H](CC(C)C)NC(=O)[C@H](CC(=O)O)NC(=O)[C@H](CO)NC(=O)[C@@H](NC(=O)[C@H](Cc1ccccc1)NC(=O)[C@@H](NC(=O)CNC(=O)[C@H](CCC(N)=O)NC(=O)C(C)(C)NC(=O)[C@@H](N)Cc1c[nH]cn1)[C@@H](C)O)[C@@H](C)O)C(=O)N[C@@H](CCCCN)C(=O)N[C@@H](CCCNC(=N)N)C(=O)N[C@@H](C)C(=O)N[C@@H](CCCNC(=N)N)C(=O)N[C@@H](CCC(=O)O)C(=O)N[C@@H](Cc1ccccc1)C(=O)N[C@H](C(=O)N[C@@H](CCC(N)=O)C(=O)N[C@@H](Cc1c[nH]c2ccccc12)C(=O)N[C@@H](CC(C)C)C(=O)N[C@@H](CC(C)C)C(=O)N[C@@H](CCCCNC(=O)CC[C@H](NC(=O)CC[C@H](NC(=O)COCCOCCNC(=O)COCCOCCNC(=O)CC[C@H](NC(=O)CCCCCCCCCCCCCCCCC(=O)O)C(=O)O)C(=O)O)C(=O)O)C(=O)N[C@H](C(N)=O)[C@@H](C)O)C(C)C` [Example 26, N^ε28-[(4S)-4-carboxy-4-[[(4S)-4-carboxy-4-[[2-[2-[2-[[2-[2-[2-[[(4S)-4-carboxy-4-(17-carboxyheptadecanoylamino)butanoyl]amino]ethoxy]ethoxy]-acetyl]amino]ethoxy]ethoxy]acetyl]amino]butanoyl]amino]butanoyl]-[Aib2,Leu10,Leu16,Lys17,Arg20,Glu21, Leu27,Lys28]-Glucagon amide] (H-H[Aib]QGTFTSDLSKYLDLKRAREFVQWLLK([γGlu-γGlu-AEEA-AEEA-γGlu-C18 diacid])T-NH2) the figure was 0.5 nM.
